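Five compound concentrations were applied to cells in 96-well plates for 48 hours; endpoints were derived by simple linear interpolation of the resulting dose-response curve. At the GI50, growth is halved. Definition used: TGI = concentration required for complete inhibition of growth.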
Tests used:
Experiment in all cases: growth of human tumour cells (NCI), 48 h
OVCAR-8 ovarian = tested on: OVCAR-8 ovarian
OVCAR-5 ovarian = tested on: OVCAR-5 ovarian
NCI-H460 lung = tested on: NCI-H460 lung
SK-MEL-2 melanoma = tested on: SK-MEL-2 melanoma
SNB-19 CNS = tested on: SNB-19 CNS
IGROV1 ovarian = tested on: IGROV1 ovarian
SF-295 CNS = tested on: SF-295 CNS
NCI-H23 lung = tested on: NCI-H23 lung
OVCAR-4 ovarian = tested on: OVCAR-4 ovarian
HT29 colon = tested on: HT29 colon

Cn1cc(-c2nc(-c3c[nH]c4ncccc34)cs2)c2cc(Cl)ccc21
GI50 (OVCAR-8 ovarian): 6.04 µM
TGI (OVCAR-8 ovarian): > 100 µM
GI50 (OVCAR-5 ovarian): 1.61 µM
TGI (OVCAR-5 ovarian): > 100 µM
GI50 (NCI-H460 lung): 3.2 µM
TGI (NCI-H460 lung): > 100 µM
GI50 (SK-MEL-2 melanoma): 13.3 µM
TGI (SK-MEL-2 melanoma): > 100 µM
GI50 (SNB-19 CNS): 6.61 µM
TGI (SNB-19 CNS): > 100 µM
GI50 (IGROV1 ovarian): 4.54 µM
TGI (IGROV1 ovarian): > 100 µM
GI50 (SF-295 CNS): 2.35 µM
TGI (SF-295 CNS): 8.75 µM
GI50 (NCI-H23 lung): 5.01 µM
TGI (NCI-H23 lung): > 100 µM
GI50 (OVCAR-4 ovarian): 0.37 µM
TGI (OVCAR-4 ovarian): > 100 µM

O=C(Nc1ncc([N+](=O)[O-])s1)c1cccc([N+](=O)[O-])c1
GI50 (OVCAR-8 ovarian): 3.2 µM
TGI (OVCAR-8 ovarian): 20.3 µM
GI50 (OVCAR-5 ovarian): 12.4 µM
TGI (OVCAR-5 ovarian): > 100 µM
GI50 (NCI-H460 lung): 2.8 µM
TGI (NCI-H460 lung): > 100 µM
GI50 (SNB-19 CNS): 3.53 µM
TGI (SNB-19 CNS): > 100 µM
GI50 (IGROV1 ovarian): 3.98 µM
TGI (IGROV1 ovarian): > 56.3 µM
GI50 (SF-295 CNS): 2.71 µM
TGI (SF-295 CNS): 35.1 µM
GI50 (NCI-H23 lung): 2.87 µM
TGI (NCI-H23 lung): > 78.2 µM
GI50 (OVCAR-4 ovarian): 3.97 µM
TGI (OVCAR-4 ovarian): > 100 µM
GI50 (HT29 colon): 4.43 µM
TGI (HT29 colon): 97.2 µM

CCC12CCC(O)C1N(C)CCC2Sc1ccccc1 (centres undefined)
TGI (OVCAR-8 ovarian): > 100 µM
TGI (NCI-H460 lung): > 100 µM
TGI (SK-MEL-2 melanoma): > 100 µM
TGI (SNB-19 CNS): > 100 µM
TGI (IGROV1 ovarian): > 100 µM
TGI (SF-295 CNS): > 100 µM
TGI (NCI-H23 lung): > 100 µM
TGI (OVCAR-4 ovarian): > 100 µM
TGI (HT29 colon): > 100 µM

Cc1cc(N(CCC#N)CCC#N)ccc1N=Nc1ccccc1[N+](=O)[O-]
TGI (OVCAR-8 ovarian): > 100 µM
TGI (OVCAR-5 ovarian): > 100 µM
TGI (SK-MEL-2 melanoma): > 100 µM
TGI (IGROV1 ovarian): > 100 µM
TGI (SF-295 CNS): > 100 µM
TGI (NCI-H23 lung): > 100 µM
TGI (OVCAR-4 ovarian): > 100 µM
TGI (HT29 colon): > 100 µM

N#C[C@]12CC3(CC[C@H]1CC1(C2)OCCO1)OCCO3
TGI (OVCAR-8 ovarian): > 100 µM
TGI (NCI-H460 lung): > 100 µM
TGI (SK-MEL-2 melanoma): > 100 µM
TGI (SNB-19 CNS): > 100 µM
TGI (IGROV1 ovarian): > 100 µM
TGI (OVCAR-4 ovarian): > 100 µM

O=NN(CCCl)C(=O)NCc1ccc[n+]([O-])c1
TGI (OVCAR-8 ovarian): > 100 µM
TGI (OVCAR-5 ovarian): > 100 µM
TGI (NCI-H460 lung): > 100 µM
TGI (SK-MEL-2 melanoma): > 100 µM
TGI (IGROV1 ovarian): > 100 µM
TGI (SF-295 CNS): > 100 µM
TGI (NCI-H23 lung): > 100 µM
TGI (OVCAR-4 ovarian): > 100 µM
TGI (HT29 colon): > 100 µM

CCNCCNc1cc(-c2ccc(Cl)cc2)c(C#N)c2nc3ccccc3n12
GI50 (OVCAR-5 ovarian): 1.91 µM
TGI (OVCAR-5 ovarian): 3.67 µM
GI50 (NCI-H460 lung): 1.79 µM
TGI (NCI-H460 lung): 3.37 µM
GI50 (SK-MEL-2 melanoma): 2.06 µM
TGI (SK-MEL-2 melanoma): 3.89 µM
GI50 (SNB-19 CNS): 1.84 µM
TGI (SNB-19 CNS): 3.64 µM
GI50 (IGROV1 ovarian): 1.68 µM
TGI (IGROV1 ovarian): 3.37 µM
GI50 (SF-295 CNS): 1.72 µM
TGI (SF-295 CNS): 3.31 µM
GI50 (NCI-H23 lung): 1.85 µM
TGI (NCI-H23 lung): 3.91 µM
GI50 (OVCAR-4 ovarian): 1.64 µM
TGI (OVCAR-4 ovarian): 4.09 µM
GI50 (HT29 colon): 1.79 µM
TGI (HT29 colon): 3.47 µM

CC1=CCP(C(F)(F)F)P(C(F)(F)F)C1 (centres undefined)
TGI (OVCAR-8 ovarian): > 100 µM
TGI (OVCAR-5 ovarian): > 100 µM
TGI (NCI-H460 lung): > 100 µM
TGI (SNB-19 CNS): > 100 µM
TGI (IGROV1 ovarian): > 100 µM
TGI (SF-295 CNS): > 100 µM
TGI (NCI-H23 lung): > 100 µM
TGI (OVCAR-4 ovarian): > 100 µM
TGI (HT29 colon): > 100 µM

C=CC[P@@]1(=O)O[C@H](c2ccccc2)C(C)N1C(C)C (some centres undefined)
TGI (OVCAR-8 ovarian): > 100 µM
TGI (OVCAR-5 ovarian): > 100 µM
TGI (NCI-H460 lung): > 100 µM
TGI (SNB-19 CNS): > 100 µM
TGI (IGROV1 ovarian): > 100 µM
TGI (SF-295 CNS): > 100 µM
TGI (NCI-H23 lung): > 100 µM
TGI (OVCAR-4 ovarian): > 100 µM
TGI (HT29 colon): > 100 µM

Cc1c(C(=O)N/N=C/c2ccc(O)cc2)nnn1-c1ccnc2c(C(F)(F)F)cccc12
GI50 (OVCAR-8 ovarian): 21.5 µM
TGI (OVCAR-8 ovarian): > 100 µM
GI50 (OVCAR-5 ovarian): > 100 µM
TGI (OVCAR-5 ovarian): > 100 µM
GI50 (NCI-H460 lung): > 100 µM
TGI (NCI-H460 lung): > 100 µM
GI50 (SK-MEL-2 melanoma): > 100 µM
TGI (SK-MEL-2 melanoma): > 100 µM
GI50 (SNB-19 CNS): 23.5 µM
TGI (SNB-19 CNS): 76.7 µM
GI50 (IGROV1 ovarian): > 100 µM
TGI (IGROV1 ovarian): > 100 µM
GI50 (SF-295 CNS): 22 µM
TGI (SF-295 CNS): > 100 µM
GI50 (NCI-H23 lung): 29.3 µM
TGI (NCI-H23 lung): > 100 µM
GI50 (OVCAR-4 ovarian): 5.09 µM
TGI (OVCAR-4 ovarian): > 100 µM

O=C(c1ccccc1)c1ccc2cccc(O)c2n1
TGI (OVCAR-8 ovarian): 71.9 µM
TGI (OVCAR-5 ovarian): > 100 µM
TGI (SK-MEL-2 melanoma): > 100 µM
TGI (SNB-19 CNS): > 100 µM
TGI (IGROV1 ovarian): > 100 µM
TGI (SF-295 CNS): 52.7 µM
TGI (NCI-H23 lung): > 100 µM
TGI (OVCAR-4 ovarian): > 100 µM

CN(C)CCCNC(=O)c1cc(NC(=O)c2cc(NC(=O)CCCN3c4ccccc4C=Cc4ccccc43)cn2C)cn1C
GI50 (OVCAR-8 ovarian): 17.3 µM
TGI (OVCAR-8 ovarian): 72.2 µM
GI50 (OVCAR-5 ovarian): 19.7 µM
TGI (OVCAR-5 ovarian): 46.9 µM
GI50 (NCI-H460 lung): 5.19 µM
TGI (NCI-H460 lung): > 100 µM
GI50 (SNB-19 CNS): 6.32 µM
TGI (SNB-19 CNS): > 100 µM
GI50 (IGROV1 ovarian): 3.36 µM
TGI (IGROV1 ovarian): 8.8 µM
GI50 (SF-295 CNS): 2.07 µM
TGI (SF-295 CNS): 5.38 µM
GI50 (NCI-H23 lung): 10.6 µM
TGI (NCI-H23 lung): 54.8 µM
GI50 (OVCAR-4 ovarian): 23.2 µM
TGI (OVCAR-4 ovarian): 97.4 µM
GI50 (HT29 colon): 3.59 µM
TGI (HT29 colon): > 100 µM

COC(=O)C(=O)C(C(=O)C(=O)Nc1ccc([N+](=O)[O-])cc1[N+](=O)[O-])c1nc2ccc([N+](=O)[O-])cc2[nH]c1=O (centres undefined)
TGI (OVCAR-8 ovarian): > 100 µM
TGI (OVCAR-5 ovarian): > 100 µM
TGI (NCI-H460 lung): > 100 µM
TGI (SNB-19 CNS): > 100 µM
TGI (IGROV1 ovarian): > 100 µM
TGI (SF-295 CNS): > 100 µM
TGI (NCI-H23 lung): > 100 µM
TGI (OVCAR-4 ovarian): > 100 µM
TGI (HT29 colon): > 100 µM

CC1=C(C(=O)Nc2ccc(F)c(Cl)c2)C(c2cccc(O)c2)NC(=S)N1 (centres undefined)
GI50 (OVCAR-8 ovarian): 28.5 µM
TGI (OVCAR-8 ovarian): > 50 µM
GI50 (OVCAR-5 ovarian): 17 µM
TGI (OVCAR-5 ovarian): > 50 µM
GI50 (NCI-H460 lung): 22.8 µM
TGI (NCI-H460 lung): > 50 µM
GI50 (SK-MEL-2 melanoma): 20.3 µM
TGI (SK-MEL-2 melanoma): > 50 µM
GI50 (SNB-19 CNS): > 50 µM
TGI (SNB-19 CNS): > 50 µM
GI50 (IGROV1 ovarian): 22.9 µM
TGI (IGROV1 ovarian): > 50 µM
GI50 (SF-295 CNS): 18 µM
TGI (SF-295 CNS): > 50 µM
GI50 (NCI-H23 lung): 19.2 µM
TGI (NCI-H23 lung): > 50 µM

N#Cc1c2ccccc2c2nnc3cc(C(F)(F)F)ccc3n12
GI50 (OVCAR-8 ovarian): 68.6 µM
TGI (OVCAR-8 ovarian): > 100 µM
GI50 (NCI-H460 lung): 37.1 µM
TGI (NCI-H460 lung): > 100 µM
GI50 (SNB-19 CNS): > 100 µM
TGI (SNB-19 CNS): > 100 µM
GI50 (IGROV1 ovarian): 46.9 µM
TGI (IGROV1 ovarian): > 100 µM
GI50 (SF-295 CNS): 96.3 µM
TGI (SF-295 CNS): > 100 µM
GI50 (OVCAR-4 ovarian): 55.5 µM
TGI (OVCAR-4 ovarian): > 100 µM
GI50 (HT29 colon): 58 µM
TGI (HT29 colon): > 100 µM

COc1cc(/C=C2\CC(C)CC3C2=NN(c2ccccc2)C3c2cc(OC)c(OC)c(OC)c2)cc(OC)c1OC (centres undefined)
GI50 (OVCAR-8 ovarian): 10.2 µM
TGI (OVCAR-8 ovarian): > 100 µM
GI50 (OVCAR-5 ovarian): 53.7 µM
TGI (OVCAR-5 ovarian): > 100 µM
GI50 (NCI-H460 lung): 11.1 µM
TGI (NCI-H460 lung): 28.4 µM
GI50 (SK-MEL-2 melanoma): 15.6 µM
TGI (SK-MEL-2 melanoma): 93 µM
GI50 (SNB-19 CNS): 21.7 µM
TGI (SNB-19 CNS): > 100 µM
GI50 (IGROV1 ovarian): 20.2 µM
TGI (IGROV1 ovarian): > 100 µM
GI50 (SF-295 CNS): 10.3 µM
TGI (SF-295 CNS): 63.7 µM
GI50 (OVCAR-4 ovarian): 14.2 µM
TGI (OVCAR-4 ovarian): > 100 µM
GI50 (HT29 colon): 11.1 µM
TGI (HT29 colon): 39.9 µM

Cc1ccc(C)c(-n2c(-c3ccc(Br)cc3)csc2=NC(=O)c2ccccc2F)c1
GI50 (OVCAR-8 ovarian): > 100 µM
TGI (OVCAR-8 ovarian): > 100 µM
GI50 (OVCAR-5 ovarian): > 100 µM
TGI (OVCAR-5 ovarian): > 100 µM
GI50 (SK-MEL-2 melanoma): > 100 µM
TGI (SK-MEL-2 melanoma): > 100 µM
GI50 (SNB-19 CNS): > 100 µM
TGI (SNB-19 CNS): > 100 µM
GI50 (IGROV1 ovarian): > 100 µM
TGI (IGROV1 ovarian): > 100 µM
GI50 (SF-295 CNS): 52.4 µM
TGI (SF-295 CNS): > 100 µM
GI50 (OVCAR-4 ovarian): 9.57 µM
TGI (OVCAR-4 ovarian): > 100 µM

From PubChem BioAssay (NCI)
